92 compounds from US8329675B2, “Inhibitors of fatty acid amide hydrolase” (Infinity Pharmaceuticals, Inc., priority 2006, dated 2012) can be followed below.

In the test the target is T1, human FAAH (Homo sapiens, UniProt O00519).
T1 construct: host or cells: COS-7 cells, transient transfection; 13,000 g membrane fraction solubilised in 1% Triton X-100
T1 sequence (O00519 1-579): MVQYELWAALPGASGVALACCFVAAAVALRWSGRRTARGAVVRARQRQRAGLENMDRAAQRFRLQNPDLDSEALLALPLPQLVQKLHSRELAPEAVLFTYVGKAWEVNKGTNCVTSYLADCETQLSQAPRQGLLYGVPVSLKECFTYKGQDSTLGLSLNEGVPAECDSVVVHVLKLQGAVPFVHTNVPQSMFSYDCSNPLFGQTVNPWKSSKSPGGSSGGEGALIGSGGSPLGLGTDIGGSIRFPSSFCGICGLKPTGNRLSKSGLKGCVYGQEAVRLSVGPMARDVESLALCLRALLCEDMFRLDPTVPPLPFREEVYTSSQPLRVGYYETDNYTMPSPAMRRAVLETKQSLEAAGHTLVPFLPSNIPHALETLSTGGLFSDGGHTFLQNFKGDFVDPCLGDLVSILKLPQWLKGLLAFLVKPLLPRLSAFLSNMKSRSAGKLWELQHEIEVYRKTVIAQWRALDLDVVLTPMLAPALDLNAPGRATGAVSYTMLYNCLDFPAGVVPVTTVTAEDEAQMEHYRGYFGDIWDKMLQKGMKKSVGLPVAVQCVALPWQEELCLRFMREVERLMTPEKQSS
Kind of test: Human FAAH biochemical inhibition assay (AMC arachidonoyl amide fluorescence). Conditions: Table 2, human FAAH (no asterisk); read-out: Activity (Ki). The essentials:
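Solubilized membrane fraction from COS-7 cells transfected with human FAAH, used at a final 0.05 mg/ml in 50 mM Hepes pH 7.5, 1 mM EDTA, 0.2% Triton X-100. Inhibitor pre-incubated 30 min at room temperature; 20 uM final AMC arachidonoyl amide added, reaction run 4 h at room temperature, fluorescence read.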
For the compound `N#Cc1cc(Oc2cccc(F)c2)ccc1B(O)O` [II-203], the Ki was less than 10 nM.

For the compound `COc1cc(Oc2cccc(F)c2)ccc1B(O)O` [II-204], the inhibition constant Ki is less than 10 nM.

`CN(C)c1cccc(Oc2ccc(B(O)O)cc2F)c1` [II-205]: the Ki was less than 10 nM.

Regarding `COc1cccc(Oc2ccc(B(O)O)c(F)c2)c1` [II-206], the Ki was less than 10 nM.

On to `OB(O)c1ccc(Oc2cccc(F)c2)cc1Cl` [II-207], for which the Ki was less than 10 nM.

Regarding `Cc1cc(-c2cccc(F)c2)ccc1B(O)O` [II-208], the Ki was 10 to 100 nM.

In the case of `Cc1cc(Oc2cccc(F)c2)ccc1B(O)O` [II-209], the inhibition constant (Ki) is 10 to 100 nM.

In the case of `OB(O)c1ccc(Oc2ccc(F)c(F)c2)cc1F` [II-210], the Ki is less than 10 nM.

Regarding `Cc1ccc(Oc2ccc(B(O)O)c(F)c2)cc1Cl` [II-211], the Ki is less than 10 nM.

In the case of `OB(O)c1ccc(Oc2cccc(OC(F)(F)F)c2)cc1F` [II-212], the inhibitory constant (Ki) was less than 10 nM.

In the case of `Cc1cc(Oc2ccc(B(O)O)c(F)c2)ccc1Cl` [II-213], the inhibition constant Ki is less than 10 nM.

Turning to `CN(C)CCN(Cc1ccccc1)C(=O)C(Oc1ccc(B(O)O)cc1)c1ccccc1` (centres unmarked) [II-214], the inhibitory constant (Ki) was greater than 1000 nM.

On to `CN(C)CCNC(=O)C(Oc1ccc(B(O)O)cc1)c1ccccc1` (centres unmarked) [II-215], for which the inhibition constant (Ki) is greater than 1000 nM.

On to `O=C(C(Oc1ccc(B(O)O)cc1)c1ccccc1)N1CCCCC1` (centres unmarked) [II-216], for which the Ki is 10 to 1000 nM.

For `O=C(NCc1ccccc1)C(Oc1ccc(B(O)O)cc1)c1ccccc1` (centres unmarked) [II-217], the Ki was in the range of 10 to 1000 nM.

As for `CCCCNC(=O)C(Oc1ccc(B(O)O)cc1)c1ccccc1` (centres unmarked) [II-218], the inhibition constant Ki lay within 10 to 1000 nM.

Regarding `CN(C)C(=O)C(Oc1ccc(B(O)O)cc1)c1ccccc1` (centres unmarked) [II-219], the Ki was 10 to 1000 nM.

Consider `CCCCNC(=O)c1cccc(Oc2ccc(B(O)O)cc2)c1` [II-220], for which the Ki was less than 10 nM.

On to `O=C(NCc1ccccc1)c1cccc(Oc2ccc(B(O)O)cc2)c1` [II-221], for which the Ki was less than 10 nM.

On to `O=S(=O)(Cc1ccccc1)c1ccc(B(O)O)cc1` [II-222], for which the inhibitory constant (Ki) is greater than 1000 nM.

For the compound `O=C(c1ccc(B(O)O)cc1)N(Cc1ccccc1)Cc1ccccc1` [II-223], the Ki lay within 10 to 1000 nM.

Consider `COC(=O)C(Oc1ccc(B(O)O)cc1)c1ccccc1` (centres unmarked) [II-224], for which the Ki was 10 to 100 nM.

In the case of `CC(C)NC(=O)c1cccc(Oc2ccc(B(O)O)cc2)c1` [II-225], the Ki was less than 10 nM.

For the compound `O=C(c1cccc(Oc2ccc(B(O)O)cc2)c1)N1CCCC1` [II-226], the Ki lay within 10 to 100 nM.

As to `CN(C)C(=O)c1ccc(Oc2ccc(B(O)O)cc2)cc1` [II-227], the inhibition constant (Ki) is 10 to 100 nM.

As to `CN(C)C(=O)c1cccc(Oc2ccc(B(O)O)cc2)c1` [II-228], the Ki was in the range of 10 to 100 nM.

`CN(CCc1ccccc1)C(=O)c1ccc(B(O)O)cc1` [II-229]: the Ki was less than 10 nM.

For the compound `CN(C(=O)c1ccc(B(O)O)cc1)c1ccccc1` [II-230], the inhibition constant Ki is 10 to 100 nM.

`OB(O)c1ccc(CSc2ccccc2)cc1` [II-231]: the Ki is less than 10 nM.

For the compound `[O-][S+](Cc1ccc(B(O)O)cc1)c1ccccc1` (centres unmarked) [II-232], the inhibitory constant (Ki) lay in the range of 10 to 1000 nM.

In the case of `[O-][S+](Cc1ccccc1)c1ccc(B(O)O)cc1` (centres unmarked) [II-233], the inhibition constant Ki fell in the range of 10 to 100 nM.

For the compound `OB(O)c1ccc(SCc2ccccc2)cc1` [II-234], the Ki was less than 10 nM.

With `CN(C(=O)c1ccccc1)c1ccc(B(O)O)cc1` [II-235], the Ki fell in the range of 10 to 1000 nM.

As for `CC(C)OC(=O)c1cccc(Oc2ccc(B(O)O)cc2)c1` [II-236], the Ki is less than 10 nM.

`OB(O)c1ccc(OC2CCCCC2)cc1` [II-237]: the inhibition constant (Ki) was less than 10 nM.

For the compound `CC(Oc1ccc(B(O)O)cc1)c1ccccc1` (centres unmarked) [II-238], the Ki fell in the range of 10 to 100 nM.

Consider `COc1c(C)cc(Oc2ccc(B(O)O)cc2)cc1C` [II-239], for which the Ki lay in the range of 10 to 100 nM.

Turning to `COc1cc(Oc2ccc(B(O)O)cc2)cc(OC)c1OC` [II-240], the Ki was in the range of 10 to 100 nM.

Consider `OB(O)c1ccc(CBr)cc1` [II-241], for which the Ki is greater than 1000 nM.

On to `OB(O)c1ccc(COc2ccccc2)cc1` [II-242], for which the Ki was less than 10 nM.

For `CCCCOc1cccc(Oc2ccc(B(O)O)cc2)c1` [II-243], the inhibition constant Ki is less than 10 nM.

Consider `OB(O)c1ccc(Oc2cccc(OC(F)(F)F)c2)cc1` [II-244], for which the Ki is less than 10 nM.

On to `CC(C)Oc1cccc(Oc2ccc(B(O)O)cc2)c1` [II-245], for which the Ki was less than 10 nM.

On to `CC(C)c1cccc(Oc2ccc(B(O)O)cc2)c1` [II-246], for which the Ki is less than 10 nM.

On to `Cc1cc(COC(=O)c2ccc(B(O)O)cc2)ccc1F` [II-247], for which the Ki fell in the range of 10 to 100 nM.

Regarding `O=C(Cc1ccccc1)Nc1ccc(B(O)O)cc1` [II-248], the Ki is 10 to 100 nM.

For the compound `O=C(Nc1ccc(B(O)O)cc1)c1ccccc1` [II-249], the Ki was 10 to 1000 nM.

As for `Cc1cc(OCc2ccc(B(O)O)cc2)ccc1Cl` [II-250], the inhibition constant (Ki) is less than 10 nM.

Turning to `CCOc1ccc(Oc2ccc(B(O)O)cc2)cc1F` [II-251], the inhibition constant (Ki) is less than 10 nM.

On to `COc1ccc(Oc2ccc(B(O)O)cc2)cc1Cl` [II-252], for which the Ki is less than 10 nM.

`Cc1cc(Oc2ccc(B(O)O)cc2)ccc1F` [II-253]: the Ki is less than 10 nM.

As to `Cc1cc(Oc2ccc(B(O)O)cc2)ccc1Cl` [II-254], the Ki was less than 10 nM.

For `COc1ccc(Oc2ccc(B(O)O)cc2)cc1F` [II-255], the Ki is less than 10 nM.

Regarding `OB(O)c1ccc(Oc2ccc(C(F)(F)F)c(Cl)c2)cc1` [II-256], the Ki was less than 10 nM.

Turning to `OB(O)c1ccc(Oc2ccc(Cl)c(C(F)(F)F)c2)cc1` [II-257], the Ki was less than 10 nM.

With `OB(O)c1ccc(Oc2cc(Cl)cc(Cl)c2)cc1` [II-258], the Ki is 10 to 100 nM.

With `OB(O)c1ccc(Oc2ccc(Cl)c(Cl)c2)cc1` [II-259], the inhibition constant (Ki) was less than 10 nM.

Turning to `OB(O)c1ccc(Oc2cc(F)cc(F)c2)cc1` [II-260], the inhibition constant (Ki) was less than 10 nM.

`OB(O)c1ccc(Oc2ccc(F)c(F)c2)cc1` [II-261]: the inhibition constant (Ki) is less than 10 nM.

With `COc1ccc(Oc2ccc(B(O)O)cc2)cc1OC` [II-262], the Ki was less than 10 nM.

For the compound `OB(O)c1ccc(Oc2cc(F)c(F)c(F)c2)cc1` [II-263], the Ki was less than 10 nM.

For `COc1ccc(Oc2ccc(B3OC(C)(C)C(C)(C)O3)cc2)cc1OC` [II-264], the Ki is less than 10 nM.

As to `Cc1cc(COc2ccc(B(O)O)cc2F)ccc1F` [II-265], the inhibition constant Ki was less than 10 nM.

In the case of `Cc1ccc(F)c(COc2ccc(B(O)O)cc2)c1Cl` [II-266], the Ki fell in the range of 10 to 100 nM.

As for `Cc1cc(COc2ccc(B(O)O)cc2)ccc1F` [II-267], the Ki lay within 10 to 100 nM.

`Cc1cccc(COc2ccc(B(O)O)cc2)c1F` [II-268]: the Ki lay within 10 to 100 nM.

For `OB(O)c1ccc(OCc2ccc(Cl)cc2)cc1` [II-269], the inhibition constant (Ki) is less than 10 nM.

For the compound `Cc1cccc(COc2ccc(B(O)O)cc2)c1` [II-270], the inhibitory constant (Ki) fell in the range of 10 to 100 nM.

Consider `CCCCOc1ccc(Oc2ccc(B(O)O)cc2)cc1F` [II-271], for which the inhibition constant Ki was less than 10 nM.

`Cc1ccc(Oc2ccc(B(O)O)cc2)cc1F` [II-272]: the inhibitory constant (Ki) was less than 10 nM.

On to `CCCOc1ccc(Oc2ccc(B(O)O)cc2)cc1F` [II-273], for which the inhibitory constant (Ki) was less than 10 nM.

For `OB(O)c1ccc(Oc2ccc3c(c2)OCO3)cc1` [II-274], the Ki is less than 10 nM.

On to `Cc1ccc(Oc2ccc(B(O)O)cc2)cc1[N+](=O)[O-]` [II-275], for which the Ki was less than 10 nM.

For `Cc1ccc(Oc2ccc(B(O)O)cc2)cc1Cl` [II-276], the Ki was less than 10 nM.

Consider `Cc1ccc(Oc2ccc(B(O)O)cc2)cc1C` [II-277], for which the Ki was less than 10 nM.

With `COc1ccc(Oc2ccc(B(O)O)cc2)cc1` [II-278], the inhibition constant Ki was less than 10 nM.

In the case of `COc1cccc(Oc2ccc(B(O)O)cc2)c1` [II-279], the inhibition constant Ki was less than 10 nM.

In the case of `Cc1ccc(Oc2ccc(B(O)O)cc2)cc1` [II-280], the inhibitory constant (Ki) is less than 10 nM.

As to `Cc1cccc(Oc2ccc(B(O)O)cc2)c1` [II-281], the Ki is less than 10 nM.

Regarding `COc1cc(B(O)O)ccc1Oc1cccc(F)c1` [II-282], the inhibitory constant (Ki) was less than 10 nM.

Take `Cc1cc(B(O)O)cc(C)c1Oc1cccc(F)c1` [II-283]: the inhibition constant Ki is 10 to 100 nM.

With `COC(=O)c1ccc(Oc2ccc(B(O)O)cc2)cc1` [II-284], the inhibition constant Ki is less than 10 nM.

As to `COC(=O)c1cccc(Oc2ccc(B(O)O)cc2)c1` [II-285], the inhibition constant Ki is less than 10 nM.

On to `Nc1ccc(Oc2ccc(B(O)O)cc2)cc1` [II-286], for which the inhibitory constant (Ki) was in the range of 10 to 100 nM.

Consider `Nc1cccc(Oc2ccc(B(O)O)cc2)c1` [II-287], for which the inhibition constant (Ki) lay in the range of 10 to 100 nM.

With `CC(C)(C)OC(=O)Nc1ccc(Oc2ccc(B(O)O)cc2)cc1` [II-288], the inhibition constant Ki lay in the range of 10 to 100 nM.

`CC(C)(C)OC(=O)Nc1cccc(Oc2ccc(B(O)O)cc2)c1` [II-289]: the inhibition constant (Ki) fell in the range of 10 to 100 nM.

Regarding `OB(O)c1ccc(Oc2ccc(F)cc2)cc1` [II-290], the Ki is less than 10 nM.

Consider `OB(O)c1ccc(Oc2cccc(F)c2)cc1` [II-291], for which the inhibition constant (Ki) is less than 10 nM.

Regarding `OB(O)c1ccc(Oc2ccncc2)cc1` [II-292], the Ki was in the range of 10 to 1000 nM.

For the compound `OB(O)c1ccc(Oc2cccnc2)cc1` [II-293], the Ki was less than 10 nM.

For the compound `CC(=O)c1ccc(-c2ccc(B(O)O)cc2)cc1` [II-295], the Ki is less than 10 nM.

Usually Ki stands for a dissociation constant, usually derived from enzyme kinetics or from competition with a known ligand.
